In experiment [1] the target is T1, WDR5 (Homo sapiens, UniProt P61964).
T1 construct: N-terminal His-tagged WDR5 protein (residues 24-334), named WDR5Δ23; made in house; host or cells: E. coli Rosetta 2 (DE3)
As to the kind of experiment: fluorescence polarization (FP) based competitive binding assay to WDR5 protein. For orientation: Polarisation of emitted light reports the rotation of a fluorescent probe.
Description: The plates were incubated at room temperature on a shaker for 3h, and then the mP values were measured using the Tecan Infinite M-1000 plate reader (Tecan U.S., Research Triangle Park, N.C.).

The test system of experiment [2] is MOLM-13 leukemia cells carrying MLL-AF9 fusion. Put plainly: cell viability assay (WST-8), MOLM-13. Type of experiment: cell-based. Particulars: Homo sapiens, MOLM-13, 96 h.
[3] abbreviates: calculated from IC50 by published equation, read-out: Binding Affinity to WDR5 Ki ± SD.
[4] abbreviates: read-out: Binding Affinity to WDR5 IC50 ± SD.
[5] abbreviates: Table 2A, 4 days treatment, read-out: MOLM-13 IC50.

Where two headings read alike, the source gives them in different places. Starred links: 1 amine or outer side, 2 acyl side, 3 side chain; linkers in the order of their positions; H or OH if unused. Positions of bridges follow the written chain, without caps; N, C: chain ends. Non-standard residues stand in square brackets, D forms with d. Residues, ends and D or L forms follow the SMILES beside them. *: point of attachment. dαMeLys(Me) = CN(CCCC[C@@](C)(N[*:1])C(=O)[*:2])[*:3]; dαMeDab = C[C@](CCN[*:3])(N[*:1])C(=O)[*:2]; dPhe(4-F) = N[C@H](Cc1ccc(F)cc1)C(=O)O; dPhg(4-F) = N[C@@H](C(=O)O)c1ccc(F)cc1; Lys(Me2) = CN(C)CCCC[C@H](N)C(=O)O; dCha = N[C@H](CC1CCCCC1)C(=O)O; dChg = N[C@@H](C(=O)O)C1CCCCC1; dPhg = N[C@@H](C(=O)O)c1ccccc1; Imidazol2yl = c1c[nH]c(*)n1; dOrn = NCCC[C@@H](N)C(=O)O; Isobutyryl = CC(C)C(=O)*; Orn = NCCC[C@H](N)C(=O)O; dDap = NC[C@@H](N)C(=O)O; Abu = CC[C@H](N)C(=O)O; Acryloyl = C=CC(=O)*

In patent US20210130401A1, “PEPTIDOMIMETIC INHIBITORS OF THE WDR5-MLL INTERACTION” (THE REGENTS OF THE UNIVERSITY OF MICHIGAN, priority 2017, published 2021) one finds IC50 and Ki data, which are given here for 20 compounds.

Regarding `CC[C@@H]1NC(=O)[C@H](CCCNC(=N)N)NC(=O)[C@](C)(NC(=O)C(C)C)CCNC(=O)[C@@H](c2ccc(OC)cc2)NC1=O` [Cpd. No. 93, N-((3R,6S,9S,12R)-6-ethyl-9-(3-guanidinopropyl)-3-(4-methoxyphenyl)-12-methyl-2,5,8,11-tetraoxo-1,4,7,10-tetraazacyclotetradecan-12-yl)isobutyramide], in experiment [1], the IC50 was 0.00179 µM and the Ki is less than 0.001 µM. Further, the IC50 in experiment [2] (read-out: MOLM-13 IC50 (μM)) came to 0.083 µM.

Regarding `CC[C@@H]1NC(=O)[C@H](CCCNC(=N)N)NC(=O)[C@H](NC(=O)C(C)C)CCCCNC(=O)[C@@H](c2ccccc2)NC1=O` [Cpd. No. 73, N-((3R,6S,9S,12R)-6-ethyl-9-(3-guanidinopropyl)-2,5,8,11-tetraoxo-3-phenyl-1,4,7,10-tetraazacyclohexadecan-12-yl)isobutyramide] (Isobutyryl-[dK]R[Abu][dPhg]; lactam 1-C), the Ki in experiment [1] (setting [3]) is 0.0603 ± 0.0119 µM. The IC50 in experiment [1] (setting [4]) came out at 0.298 ± 0.058 µM.

Turning to `CC[C@@H]1NC(=O)[C@H](CCCNC(=N)N)NC(=O)[C@](C)(NC(=O)C(C)C)CCNC(=O)[C@@H](c2ccc(F)cc2)NC1=O` [Cpd. No. 53, N-((3R,6S,9S,12R)-6-ethyl-3-(4-fluorophenyl)-9-(3-guanidinopropyl)-12-methyl-2,5,8,11-tetraoxo-1,4,7,10-tetraazacyclotetradecan-12-yl)isobutyramide] (Isobutyryl-[dαMeDab]R[Abu][dPhg(4-F)]; lactam 1-C), in experiment [1], the IC50 is 0.000878 µM and the Ki is less than 0.001 µM. For the same compound, the IC50 in experiment [2] (read-out: MOLM-13 IC50 (μM)) amounted to 0.38 µM.

As to `CC[C@@H]1NC(=O)[C@H](CCCNC(=N)N)NC(=O)[C@](C)(NC(=O)C(C)C)CCNC(=O)[C@@H](c2cccc(OC)c2)NC1=O` [Cpd. No. 94, N-((3R,6S,9S,12R)-6-ethyl-9-(3-guanidinopropyl)-3-(3-methoxyphenyl)-12-methyl-2,5,8,11-tetraoxo-1,4,7,10-tetraazacyclotetradecan-12-yl)isobutyramide], in experiment [1], the IC50 is 0.004 µM and the Ki is less than 0.001 µM. Also, the IC50 in experiment [2] (read-out: MOLM-13 IC50 (μM)) is 0.56 µM.

As to `CC[C@@H]1NC(=O)[C@H](CCCNC(=N)N)NC(=O)[C@](C)(NC(=O)C(C)C)CCNC(=O)[C@@H](c2cccc(Cl)c2)NC1=O` [Cpd. No. 84, N-((3R,6S,9S,12R)-3-(3-chlorophenyl)-6-ethyl-9-(3-guanidinopropyl)-12-methyl-2,5,8,11-tetraoxo-1,4,7,10-tetraazacyclotetradecan-12-yl)isobutyramide], the IC50 in experiment [1] amounted to 0.00148 µM; in experiment [2] (read-out: MOLM-13 IC50 (μM)), 0.51 µM. The compound also registered a Ki in experiment [1] of less than 0.001 µM.

Turning to `CC[C@@H]1NC(=O)[C@H](CCCNC(=N)N)NC(=O)[C@](C)(NC(=O)C(C)C)CCCCN(C)C(=O)[C@@H](c2ccccc2)NC1=O` [Cpd. No. 65, N-((3R,6S,9S,12R)-6-ethyl-9-(3-guanidinopropyl)-1,12-dimethyl-2,5,8,11-tetraoxo-3-phenyl-1,4,7,10-tetraazacyclohexadecan-12-yl)isobutyramide] (Isobutyryl-[dαMeLys(Me)]R[Abu][dPhg]; lactam 1-C), in experiment [1], the IC50 was found to be 0.0016 ± 0.0003 µM and the Ki was less than 0.001 µM.

In experiment [1], `CC[C@@H]1NC(=O)[C@H](CCCNC(=N)N)NC(=O)[C@](C)(NC(=O)C(C)C)CCCCN(C)C(=O)[C@@H](c2ccc(Cl)cc2)NC1=O` [Cpd. No. 67, N-((3R,6S,9S,12R)-3-(4-chlorophenyl)-6-ethyl-9-(3-guanidinopropyl)-1,12-dimethyl-2,5,8,11-tetraoxo-1,4,7,10-tetraazacyclohexadecan-12-yl)isobutyramide] returned an IC50 of 0.0015 ± 0.0009 µM and a Ki of less than 0.001 µM.

Regarding `CC[C@@H]1NC(=O)[C@H](CCCNC(=N)N)NC(=O)[C@H](NC(=O)C(C)C)CNC(=O)[C@@H](c2ccccc2)NC1=O` [Cpd. No. 71, N-((3R,6S,9S,12R)-6-ethyl-9-(3-guanidinopropyl)-2,5,8,11-tetraoxo-3-phenyl-1,4,7,10-tetraazacyclotridecan-12-yl)isobutyramide] (Isobutyryl-[dDap]R[Abu][dPhg]; lactam 1-C), the inhibition constant (Ki) in experiment [1] (setting [3]) was 0.242 ± 0.033 µM. For the same compound, the IC50 in experiment [1] (setting [4]) came out at 1.19 ± 0.16 µM.

Take `CC[C@@H]1NC(=O)[C@H](CCCNC(=N)N)NC(=O)[C@H](NC(=O)C(C)C)CCCNC(=O)[C@@H](c2ccccc2)NC1=O` [Cpd. No. 72, N-((3R,6S,9S,12R)-6-ethyl-9-(3-guanidinopropyl)-2,5,8,11-tetraoxo-3-phenyl-1,4,7,10-tetraazacyclopentadecan-12-yl)isobutyramide] (Isobutyryl-[dOrn]R[Abu][dPhg]; lactam 1-C): the Ki in experiment [1] (setting [3]) is 0.0329 ± 0.0053 µM. For the same compound, the concentration for half-maximal inhibition (IC50) in experiment [1] (setting [4]) was found to be 0.164 ± 0.026 µM.

As for `CC[C@@H]1NC(=O)[C@H](CCCCN(C)C)NC(=O)[C@](C)(NC(=O)C(C)C)CCNC(=O)[C@@H](c2ccccc2)NC1=O` [Cpd. No. 6, N-((3R,6S,9S,12R)-9-(4-(dimethylamino)butyl)-6-ethyl-12-methyl-2,5,8,11-tetraoxo-3-phenyl-1,4,7,10-tetraazacyclotetradecan-12-yl)isobutyramide] (Isobutyryl-[dαMeDab][Lys(Me2)][Abu][dPhg]; lactam 1-C), in experiment [2] (read-out: MOLM-13 IC50 (μM)), the IC50 is greater than 10 µM.

In the case of `CCCCNC(=N)NCCC[C@@H]1NC(=O)[C@](C)(NC(=O)C(C)C)CCNC(=O)[C@@H](CC2CCCCC2)NC(=O)[C@H](CC)NC1=O` [Cpd. No. 47, N-((3R,6S,9S,12R)-9-(3-(3-butylguanidino)propyl)-3-(cyclohexylmethyl)-6-ethyl-12-methyl-2,5,8,11-tetraoxo-1,4,7,10-tetraazacyclotetradecan-12-yl)isobutyramide], the IC50 in experiment [2] (read-out: MOLM-13 IC50 (μM)) is greater than 10 µM.

Take `CC[C@@H]1NC(=O)[C@H](CCCNC(=N)N)NC(=O)[C@](C)(NC(=O)C(C)C)CCNC(=O)[C@@H](CC2CCCCC2)NC1=O` [Cpd. No. 52, N-((3R,6S,9S,12R)-3-(cyclohexylmethyl)-6-ethyl-9-(3-guanidinopropyl)-12-methyl-2,5,8,11-tetraoxo-1,4,7,10-tetraazacyclotetradecan-12-yl)isobutyramide] (Isobutyryl-[dαMeDab]R[Abu][dCha]; lactam 1-C): in experiment [2] (read-out: MOLM-13 IC50 (μM)), the IC50 worked out at 1.49 µM.

Regarding `CC[C@@H]1NC(=O)[C@H](CCCNC(=N)N)NC(=O)[C@](C)(NC(=O)C(C)C)CCNC(=O)[C@@H](Cc2ccc(F)cc2)NC1=O` [Cpd. No. 57, N-((3R,6S,9S,12R)-6-ethyl-3-(4-fluorobenzyl)-9-(3-guanidinopropyl)-12-methyl-2,5,8,11-tetraoxo-1,4,7,10-tetraazacyclotetradecan-12-yl)isobutyramide] (Isobutyryl-[dαMeDab]R[Abu][dPhe(4-F)]; lactam 1-C), the IC50 in experiment [2] (read-out: MOLM-13 IC50 (μM)) was determined as 6.51 µM.

With `CC[C@@H]1NC(=O)[C@H](CCNC2CCN(C)CC2)NC(=O)[C@](C)(NC(=O)C(C)C)CCNC(=O)[C@@H](c2ccccc2)NC1=O` [Cpd. No. 8, N-((3R,6S,9S,12R)-6-ethyl-12-methyl-9-(2-((1-methylpiperidin-4-yl)amino)ethyl)-2,5,8,11-tetraoxo-3-phenyl-1,4,7,10-tetraazacyclotetradecan-12-yl)isobutyramide], the IC50 in experiment [2] (read-out: MOLM-13 IC50 (μM)) is greater than 10 µM.

Turning to `CC[C@@H]1NC(=O)[C@H](CCCNc2ncc[nH]2)NC(=O)[C@](C)(NC(=O)C(C)C)CCNC(=O)[C@@H](c2ccccc2)NC1=O` [Cpd. No. 20, N-((3R,6S,9S,12R)-9-(3-((1H-imidazol-2-yl)amino)propyl)-6-ethyl-12-methyl-2,5,8,11-tetraoxo-3-phenyl-1,4,7,10-tetraazacyclotetradecan-12-yl)isobutyramide] (Isobutyryl-[dαMeDab][Orn](Imidazol2yl)[Abu][dPhg]; lactam 1-C), the IC50 in experiment [2] (read-out: MOLM-13 IC50 (μM)) is greater than 10 µM.

`CC[C@@H]1NC(=O)[C@H](CCCN/C(N)=N/CC(F)(F)F)NC(=O)[C@](C)(NC(=O)C(C)C)CCNC(=O)[C@@H](c2ccccc2)NC1=O` [Cpd. No. 22, N-((3R,6S,9S,12R)-6-ethyl-12-methyl-2,5,8,11-tetraoxo-3-phenyl-9-(3-((E)-2-(2,2,2-trifluoroethyl)guanidino)propyl)-1,4,7,10-tetraazacyclotetradecan-12-yl)isobutyramide]: in experiment [2] (read-out: MOLM-13 IC50 (μM)), the IC50 is greater than 10 µM.

As for `C=CC(=O)NCCC[C@@H]1NC(=O)[C@](C)(NC(=O)C(C)C)CCNC(=O)[C@@H](c2ccccc2)NC(=O)[C@H](CC)NC1=O` [Cpd. No. 23, N-(3-((5S,8R,13R)-5-ethyl-13-isobutyramido-13-methyl-3,6,9,14-tetraoxo-8-phenyl-1,4,7,10-tetraazacyclotetradecan-2-yl)propyl)acrylamide] (Isobutyryl-[dαMeDab][Orn](Acryloyl)[Abu][dPhg]; lactam 1-C), in experiment [2] (setting [5]), the IC50 was greater than 10 µM.

Regarding `C=CC(=O)NCCCC[C@@H]1NC(=O)[C@](C)(NC(=O)C(C)C)CCNC(=O)[C@@H](c2ccccc2)NC(=O)[C@H](CC)NC1=O` [Cpd. No. 24, N-(4-((2S,5S,8R,13R)-5-ethyl-13-isobutyramido-13-methyl-3,6,9,14-tetraoxo-8-phenyl-1,4,7,10-tetraazacyclotetradecan-2-yl)butyl)acrylamide] (Isobutyryl-[dαMeDab]K(Acryloyl)[Abu][dPhg]; lactam 1-C), in experiment [2] (setting [5]), the IC50 is greater than 10 µM.

Turning to `CC[C@@H]1NC(=O)[C@H](CCCNC(=N)N)NC(=O)[C@](C)(NC(=O)C(C)C)CCNC(=O)[C@@H](c2cccc3ccccc23)NC1=O` [Cpd. No. 81, N-((3R,6S,9S,12R)-6-ethyl-9-(3-guanidinopropyl)-12-methyl-3-(naphthalen-1-yl)-2,5,8,11-tetraoxo-1,4,7,10-tetraazacyclotetradecan-12-yl)isobutyramide], the IC50 in experiment [2] (read-out: MOLM-13 IC50 (μM)) came to 1.29 µM.

On to `CC[C@@H]1NC(=O)[C@H](CCCNC(=N)N)NC(=O)[C@](C)(NC(=O)C(C)C)CCNC(=O)[C@@H](C2CCCCC2)NC1=O` [Cpd. No. 51, N-((3R,6S,9S,12R)-3-cyclohexyl-6-ethyl-9-(3-guanidinopropyl)-12-methyl-2,5,8,11-tetraoxo-1,4,7,10-tetraazacyclotetradecan-12-yl)isobutyramide] (Isobutyryl-[dαMeDab]R[Abu][dChg]; lactam 1-C), for which, in experiment [2] (read-out: MOLM-13 IC50 (μM)), the IC50 stood at 0.64 µM.

The IC50 is the midpoint of a concentration-inhibition curve. Usually Ki stands for the equilibrium dissociation constant of an inhibitor or competing ligand from its target.
